This is an account of results in patent publication US12509467B2 (Hoffmann-La Roche Inc., priority 2020, dated 2025).

Structures are written as SMILES. Where two headings read alike, the source gives them in different places.

This test has as its target T1, human cGAS (residues 161-522) (Homo sapiens, UniProt Q8N884).
T1 construct: Recombinantly expressed purified human cGAS (residues 161-522) was used at 25 nM; made in house
The experiment in a line: cGAS Activity Assay—Malachite Green. The test is classed as biochemical. The procedure: Compounds were tested for cGAS inhibition in a coupled enzymatic assay based on Phosphate detection by Malachite Green. Final assay conditions were 20 mM TRIS pH 7.5 (Applichem), 5 mM MgCl2 (Sigma) and 0.01% BSA (Sigma) supplemented with 80 μM ATP (Sigma), 80 μM GTP (Sigma) and 100 nM Interferon Stimulating DNA (ISD) (Microsynth).
1 μL of DMSO dilution series was transferred to 32.3 μL reaction buffer, mixed by pipetting up/down, spun for 1 minute at 3000 rpm and was visually inspected for precipitation. 5 μL of 3-fold enzyme stock solution were transferred to an empty 384-well Black/Clear Flat Bottom Polystyrene NBS (Corning) rows 3-24. Rows 1-2 were filled with assay buffer. Plates were spun 10 seconds at 1000 rpm (164×g). 5 μL of compound intermediate dilution was added and mixed by pipetting up/down to rows 3-24. Rows 1-2 were filled with 3.1% DMSO assay buffer. Plates were spun 10 seconds at 1000 rpm (164×g). 5 μL 3-fold Nucleotide/DNA mix was added to all wells to start the reaction. Plates were spun 10 seconds at 1000 rpm (164×g) and incubated for 4 hour at room temperature (RT) in the dark. 5 μL 4 U/mL PPase (Sigma) were added to all wells. Plates spun 10 seconds at 1000 rpm (164×g). 10 μL BioMol green Solution (Enzo Life Sciences) was added to all wells. Plates spun 10 seconds at 1000 rpm (164×g) and incubated 30 minutes at RT in the dark. Absorbance data was collected 620 nm on an EnVision Multilable Reader (Perkin Elmer) and the following measurement settings were used: excitation filter photometric was 620 nm; excitation from the top; measurement height was 1 mm; number of flashes was 30; number of flashes integrated was 1.
All plates are checked for abnormalities and outliers in the Blank Control (no protein, row 1) and the Neutral Control (no compound, row 2) are excluded using the 3*SD rule.
Table 5 provides IC50 values (μM) for cGAS inhibition obtained for particular examples of the present invention as measured by the above-described assay.

[1] abbreviates: cGAS inhibition, 25 nM cGAS, 80 μM ATP, 80 μM GTP, 100 nM ISD, 4 hour at RT, Malachite Green phosphate detection, read-out: IC50 cGAS.

T1 sequence (Q8N884 161-522): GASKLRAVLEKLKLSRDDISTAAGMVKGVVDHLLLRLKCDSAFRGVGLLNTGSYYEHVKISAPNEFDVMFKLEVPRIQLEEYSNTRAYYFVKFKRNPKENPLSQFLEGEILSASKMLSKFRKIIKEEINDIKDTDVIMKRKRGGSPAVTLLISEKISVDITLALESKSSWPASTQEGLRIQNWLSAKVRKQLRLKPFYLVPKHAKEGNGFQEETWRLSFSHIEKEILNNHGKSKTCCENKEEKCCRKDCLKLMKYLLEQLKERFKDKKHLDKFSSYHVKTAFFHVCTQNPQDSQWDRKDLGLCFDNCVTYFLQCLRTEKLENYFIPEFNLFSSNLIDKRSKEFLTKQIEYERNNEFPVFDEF

For orientation: IC50 means the concentration needed to halve the response being measured. Regarding `CCCc1cc(=S)n2nc(NCc3cc(-c4ccn(C)n4)ccc3Cl)nc2[nH]1` [Example 40, 2-[[2-chloro-5-(1-methylpyrazol-3-yl)phenyl]methylamino]-5-propyl-4H-[1,2,4]triazolo[1,5-a]-pyrimidine-7-thione], the IC50 came out at 869 nM. Regarding `CCCc1cc(=O)n2nc(NCc3nc4ccccc4o3)nc2[nH]1` [Example 74, 2-(1,3-benzoxazol-2-ylmethyl-amino)-5-propyl-4H-[1,2,4]-triazolo[1,5-a]pyrimidin-7-one], the IC50 under setting [1] turned out to be 4560 nM. In turn, `CCCc1cc(=O)n2nc(NCc3ccc(C(C)C)cc3)nc2[nH]1` [Example 55, 2-[(4-propan-2-ylphenyl)meth-ylamino]-5-propyl-4H-[1,2,4]-triazolo[1,5-a]pyrimidin-7-one] returned a half-maximal inhibitory concentration (IC50) of 1590 nM. With `CCc1cc(=O)n2nc(NCc3cc(-c4ccn(C)n4)ccc3Cl)nc2[nH]1` [Example 33, 2-[[2-chloro-5-(1-methylpyrazol-3-yl)phenyl]methylamino]-5-ethyl-4H-[1,2,4]triazolo[1,5-a]pyrimidin-7-one], the IC50 under setting [1] was 816 nM.

`CCCc1cc(=O)n2nc(OCc3ccc(-c4ccccc4)cc3Cl)nc2[nH]1` [Example 92, 2-1(2-Chloro-4-phenyl-phenyl)methoxyl-5-propyl-4H-[1,2,4]triazolo[1,5-a]pyrimidin-7-one]: the IC50 under setting [1] was 2180 nM. For the compound `O=c1cc(C(F)(F)F)[nH]c2nc(NCc3ccc(Cl)cc3Cl)nn12` [Example 60, 2-[(2,4-dichlorophenyl)methyl-amino]-5-(trifluoromethyl)-4H-[1,2,4]triazolo[1,5-a]-pyrimidin-7-one], the IC50 under setting [1] came to 1250 nM. As to `CCCc1cc(=O)n2nc(NCc3ccc(OCC(F)(F)F)cc3)nc2[nH]1` [Example 8, 5-propyl-2-[[4-(2,2,2-trifluoro-ethoxy)phenyl]methyllamino]-4H-[1,2,4]triazolo[1,5-a]-pyrimidin-7-one], the midpoint of inhibition, the IC50, lay at 7780 nM. On to `COCCCc1cc(=O)n2nc(NCc3cc(-c4ccn(C)n4)ccc3Cl)nc2[nH]1` [Example 48, 2-[[2-chloro-5-(1-methylpyrazol-3-yl)phenyl]methylamino]-5-(3-methoxypropyl)-4H-[1,2,4]-triazolo[1,5-a]pyrimidin-7-one], for which the IC50 under setting [1] is 603 nM. As for `O=c1cc(CCCC(F)F)[nH]c2nc(NCc3ccc(Cl)cc3Cl)nn12` [Example 52, 2-[(2,4-dichlorophenyl)methyl-amino]-5-(4,4-difluorobutyl)-4H-[1,2,4]triazolo[1,5-a]-pyrimidin-7-one], the IC50 came out at 3280 nM. For `CCCc1cc(=O)n2nc(NCc3cc(-c4ccncn4)ccc3Cl)nc2[nH]1` [Example 38, 2-[(2-chloro-5-pyrimidin-4-yl-phenyl)methylamino]-5-propyl-4H-[1,2,4]triazolo[1,5-a]-pyrimidin-7-one], the IC50 under setting [1] came out at 277 nM. As to `CCCc1cc(=O)n2nc(NCc3ccc(OCC)cc3)nc2[nH]1` [Example 54, 2-[(4-ethoxyphenyl)methyl-amino]-5-propyl-4H-[1,2,4]-triazolo[1,5-a]pyrimidin-7-one], the IC50 under setting [1] came to 2200 nM.

With `CCCc1cc(=O)n2nc(NCc3cc(-c4ccncc4)ccc3Cl)nc2[nH]1` [Example 25, 2-[[2-chloro-5-(4-pyridyl)phen-yl]methylamino]-5-propyl-4H-[1,2,4]triazolo[1,5-a]pyrimidin-7-one], the IC50 turned out to be 287 nM. Still for that read-out and setting: then `CCCc1cc(=O)n2nc(NCc3cnc(N4CCN(C)CC4)cc3Cl)nc2[nH]1` [Example 100], with 5220 nM.

Consider `CCCc1cc(=O)n2nc(NCc3ccc(N4CCOCC4)cc3Cl)nc2[nH]1` [Example 41, 2-[(2-chloro-4-morpholino-phenyl)methylamino]-5-propyl-4H-[1,2,4]triazolo[1,5-a]-pyrimidin-7-one], for which the half-maximal inhibitory concentration (IC50) under setting [1] stood at 701 nM. Turning to `CCCc1cc(=O)n2nc(NCc3cc(N4CCOCC4)ncc3Cl)nc2[nH]1` [Example 96, 2-[(5-Chloro-2-morpholino-4-pyridyl)methylamino]-5-propyl-4H-[1,2,4]triazolo[1,5-a]pyrimidin-7-one], the IC50 under setting [1] came out at 1160 nM.

Take `CCCCc1cc(=O)n2nc(NCc3nc(N4CCOCC4)ncc3Cl)nc2[nH]1` [Example 98, 5-Butyl-2-[(5-chloro-2-morpholino-pyrimidin-4-yl)methylamino]-4H-[1,2,4]triazolo[1,5-a]pyrimidin-7-one]: under setting [1], the IC50 is 435 nM.

For the compound `CCCc1cc(=O)n2nc(NCc3cnc(N4CCOCC4)cc3Cl)nc2[nH]1` [Example 99, 2-[(4-Chloro-6-morpholino-3-pyridyl)methylamino]-5-propyl-4H-[1,2,4]triazolo[1,5-a]pyrimidin-7-one], the IC50 under setting [1] was determined as 2190 nM.

For the compound `CCCc1cc(=O)n2nc(NCc3cc(-c4ccn(C)n4)ccc3C#N)nc2[nH]1` [Example 84, 4-(1-methylpyrazol-3-yl)-2-[[(7-oxo-5-propyl-4H-[1,2,4]-triazolo[1,5-a]pyrimidin-2-yl)amino]methyl]benzonitrile], the IC50 under setting [1] stood at 1150 nM.

Consider `CCCCc1cc(=O)n2nc(NCc3cc(N4CC5(COC5)C4)ncc3Cl)nc2[nH]1` [Example 97, 5-Butyl-2-[[5-chloro-2-(2-oxa-6-azaspiro[3.3]heptan-6-yl)-4-pyridyl]methylamino]-4H-[1,2,4]triazolo[1,5-a]pyrimidin-7-one], for which inhibition was half-maximal at 128 nM (IC50). On to `CCCc1cc(=O)n2nc(NCc3ccc(-c4ccn(C)n4)cc3)nc2[nH]1` [Example 14, 2-[[4-(1-methylpyrazol-3-yl)-phenyl]methylamino]-5-propyl-4H-[1,2,4]triazolo[1,5-a]-pyrimidin-7-one], for which the IC50 under setting [1] came to 4920 nM. Turning to `Cc1cc(=O)n2nc(NCc3cc(-c4ccn(C)n4)ccc3Cl)nc2[nH]1` [Example 34, 2-[[2-chloro-5-(1-methylpyrazol-3-yl)phenyl]methylamino]-5-methyl-4H-[1,2,4]triazolo[1,5-a]-pyrimidin-7-one], the IC50 under setting [1] was determined as 2110 nM. With `CCCc1cc(=O)n2nc(NCc3ccc(C#N)cc3Cl)nc2[nH]1` [Example 7, 3-chloro-4-[[(7-oxo-5-propyl-4H-[1,2,4]triazolo[1,5-a]-pyrimidin-2-yl)amino]methyl]-benzonitrile], under setting [1], the IC50 is 2420 nM.

As to `CCCc1cc(=O)n2nc(NCc3cc(-c4ccn(C)n4)ccn3)nc2[nH]1` [Example 82, 2-[[4-(1-methylpyrazol-3-yl)-2-pyridyl]methylamino]-5-propyl-4H-[1,2,4]triazolo-[1,5-a]pyrimidin-7-one], under setting [1], the IC50 was 1490 nM. Same read-out and setting: the same measure for `CCCc1cc(=O)n2nc(NCc3ccc(-c4ncccn4)cc3)nc2[nH]1` [Example 2, 5-propyl-2-[(4-pyrimidin-2-yl-phenyl)methylamino]-4H-[1,2,4]-triazolo[1,5-a]pyrimidin-7-one;]: 4380 nM; for `CCCc1cc(=O)n2nc(NCc3ccc(Cl)cc3Cl)nc2[nH]1` [Example 58, 2-[(2,4-Dichlorophenyl)methylamino]-5-propyl-4H-[1,2,4]triazolo[1,5-a]pyrimidin-7-one]: 1720 nM; for `Cn1ccc(-c2ccc(Cl)c(CNc3nc4[nH]c(C(F)(F)F)cc(=O)n4n3)c2)n1` [Example 19, 2-[[2-chloro-5-(1-methylpyrazol-3-yl)phenyl]methylamino]-5-(trifluoromethyl)-4H-[1,2,4]-triazolo[1,5-a]pyrimidin-7-one]: 663 nM.

`O=c1cc(CCc2ccccc2)[nH]c2nc(NCc3ccc(Cl)cc3Cl)nn12` [Example 72, 2-[(2,4-dichlorophenyl)meth-ylamino]-5-(2-phenylethyl)-4H-[1,2,4]triazolo[1,5-a]-pyrimidin-7-one] registered an IC50 of 2110 nM. `CCCc1cc(=O)n2nc(NCc3cc(-c4ncccn4)ccc3Cl)nc2[nH]1` [Example 43, 2-[(2-chloro-5-pyrimidin-2-yl-phenyl)methylamino]-5-propyl-4H-[1,2,4]triazolo[1,5-a]-pyrimidin-7-one]: the IC50 under setting [1] is 326 nM.

Turning to `O=c1cc(C2CC2)[nH]c2nc(NCc3ccc(Cl)cc3Cl)nn12` [Example 59, 5-cyclopropyl-2-[(2,4-dichloro-phenyl)methylamino]-4H-[1,2,4]triazolo[1,5-a]pyrimidin-7-one], under setting [1], the IC50 was 3780 nM.

As for `O=c1cc(CC2CC2)[nH]c2nc(NCc3ccc(Cl)cc3Cl)nn12` [Example 63, 5-(cyclopropylmethyl)-2-[(2,4-dichlorophenyl)methylamino]-4H-[1,2,4]triazolo[1,5-a]-pyrimidin-7-one], the IC50 under setting [1] worked out at 3590 nM. For the compound `CCCc1cc(=O)n2nc(NCc3cccc(-c4ccccc4)c3)nc2[nH]1` [Example 16, 2-[(3-phenylphenyl)methyl-amino]-5-propyl-4H-[1,2,4]-triazolo[1,5-a]pyrimidin-7-one], the IC50 under setting [1] worked out at 2560 nM. `CCCc1cc(=O)n2nc(NCc3ccc(Cl)cc3F)nc2[nH]1` [Example 62] displayed an IC50 of 4040 nM.
